Experimental data reported in PMC7558026, “Exploring and applying the substrate promiscuity of a C-glycosyltransferase in the chemo-enzymatic synthesis of bioactive C-glycosides” (Nature Communications, 2020).
Substitutions are numbered along the chain they refer to. Several values for one entry are separate records, joined by “and”; a condition that tells them apart may be missing. Equal values may be shown once.

How the values were obtained:
Type in all cases: biochemical, Aloe barbadensis
AbCGT [1] = molecular target: T1, AbCGT (Aloe vera, UniProt A0A7G9P699); assay: Glycosyltransferase activity assay, purified AbCGT (wild type) with aglycon acceptors and UDP-Glc
AbCGT V183L = assay: Glycosyltransferase activity of AbCGT variant V183L; conditions: pH 7.4, 30 °C, 12 h, Reaction-1 to -3
Description: (§1) The reaction mixture contained 0.5 mM sugar donors (1.0 mM for di-glycosylation), 0.25 mM aglycons, 50 mM Tris-HCl (pH 7.4), and 50‒100 μg of purified AbCGT in a final volume of 100 μL. Due to the instability of some acceptors in the buffer of pH 11.0, the reactions were performed under the physiological conditions (pH 7.4, 30 °C) to compare the catalytic activities of AbGT27 with different substrates under the same conditions. The reactions were performed at 30 °C for up to 12 h and terminated by the addition of 200 μL of ice-cold methanol. Subsequently, samples were centrifuged at 15,000 × g for 30 min to collect the supernatant, and aliquots were analyzed by HPLC-UV/ESIMS. HPLC analysis was performed on a Shiseido CAPCELL PAK C18 MG III column (250 mm × 4.6 mm I.D., 5 μm, Shiseido Co., Ltd., Japan) at a flow rate of 1 mL min^‒1. The mobile phase was a gradient elution of solvents A (0.1% formic acid aqueous solution) and B (methanol). The gradient programs were used for the analysis of the reactions (Supplementary Table 6). The conversion rates of the enzyme reactions were calculated from peak areas of glycosylated products and substrates as analyzed by HPLC. To facilitate inferential statistical analysis, three parallel assays were routinely performed; the means ± SD from triplicate analyses are reported here. […]

AbCGT V183M = assay: Glycosyltransferase activity of AbCGT variant V183M; conditions: pH 7.4, 30 °C, 12 h, Reaction-1 to -3
Description: as §1

AbCGT V183C = assay: Glycosyltransferase activity of AbCGT variant V183C; conditions: pH 7.4, 30 °C, 12 h, Reaction-1 to -3
Description: as §1

AbCGT V183Q = assay: Glycosyltransferase activity of AbCGT variant V183Q; conditions: pH 7.4, 30 °C, 12 h, Reaction-1 to -3
Description: as §1

AbCGT V183N = assay: Glycosyltransferase activity of AbCGT variant V183N; conditions: pH 7.4, 30 °C, 12 h, Reaction-1 to -3
Description: as §1

AbCGT V183D = molecular target: T2, AbCGT V183D (Aloe vera, UniProt A0A7G9P699, V183D); assay: Glycosyltransferase activity of AbCGT variant V183D
T2 sequence (A0A7G9P699 1-470 V183D): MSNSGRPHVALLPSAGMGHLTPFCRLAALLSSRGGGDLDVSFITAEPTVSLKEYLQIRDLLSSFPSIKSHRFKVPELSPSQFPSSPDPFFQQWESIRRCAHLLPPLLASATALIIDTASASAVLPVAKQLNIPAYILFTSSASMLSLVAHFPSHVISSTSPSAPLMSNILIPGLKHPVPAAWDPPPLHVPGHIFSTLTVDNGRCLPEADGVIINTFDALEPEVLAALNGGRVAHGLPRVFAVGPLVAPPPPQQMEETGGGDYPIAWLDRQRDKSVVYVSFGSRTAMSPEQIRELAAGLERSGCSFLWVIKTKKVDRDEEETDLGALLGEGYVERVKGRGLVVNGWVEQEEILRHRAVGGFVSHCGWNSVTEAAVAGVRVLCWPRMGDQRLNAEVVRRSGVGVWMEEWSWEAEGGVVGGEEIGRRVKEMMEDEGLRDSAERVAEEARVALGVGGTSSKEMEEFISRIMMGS
Description: (§2) The reaction mixture contained 0.5 mM sugar donors (1.0 mM for di-glycosylation), 0.25 mM aglycons, 50 mM Tris-HCl (pH 7.4), and 50‒100 μg of purified AbCGT in a final volume of 100 μL. Due to the instability of some acceptors in the buffer of pH 11.0, the reactions were performed under the physiological conditions (pH 7.4, 30 °C) to compare the catalytic activities of AbGT27 with different substrates under the same conditions. The reactions were performed at 30 °C for up to 12 h and terminated by the addition of 200 μL of ice-cold methanol. Subsequently, samples were centrifuged at 15,000 × g for 30 min to collect the supernatant, and aliquots were analyzed by HPLC-UV/ESIMS. HPLC analysis was performed on a Shiseido CAPCELL PAK C18 MG III column (250 mm × 4.6 mm I.D., 5 μm, Shiseido Co., Ltd., Japan) at a flow rate of 1 mL min^‒1. The mobile phase was a gradient elution of solvents A (0.1% formic acid aqueous solution) and B (methanol). The gradient programs were used for the analysis of the reactions (Supplementary Table 6). The conversion rates of the enzyme reactions were calculated from peak areas of glycosylated products and substrates as analyzed by HPLC. To facilitate inferential statistical analysis, three parallel assays were routinely performed; the means ± SD from triplicate analyses are reported here.
(§3) Site-saturation mutagenesis of AbCGT at residue 183 was performed by PCR using pET28a-AbCGT as a template and the corresponding degenerate primers, which are listed in Supplementary Table 5. PCR products were purified and transformed into Trans1-T1 (DE3) E. coli. The sequences of pET28a-AbCGT mutants were confirmed by sequencing, and transformed into Transetta (DE3) E. coli for heterologous expression following protein purification.

AbCGT V183E = molecular target: T3, AbCGT V183E (Aloe vera, UniProt A0A7G9P699, V183E); assay: Glycosyltransferase activity of AbCGT variant V183E
T3 sequence (A0A7G9P699 1-470 V183E): T2 sequence (A0A7G9P699 1-470 V183D) with D183E
Description: as §2, §3

AbCGT V183R = assay: Glycosyltransferase activity of AbCGT variant V183R; conditions: pH 7.4, 30 °C, 12 h, Reaction-1 to -3
Description: as §1

AbCGT [2] = molecular target: T1, AbCGT; assay: Glycosyltransferase activity assay, purified AbCGT (wild type) with aglycon acceptors and UDP-Glc; conditions: pH 7.4, 30 °C, 12 h, Reaction-1 to -3
[3] = substrate: CC(=O)c1c(O)cc(O)cc1O; assay: Kinetic parameters of AbCGT (wild type); conditions: other: acceptor varied, UDP-Glc as donor, pH 7.4, 30 °C
Description: (§4) The reactions terminated by the addition of 200 μL of ice-cold methanol. Subsequently, samples were centrifuged at 15,000 × g for 30 min to collect the supernatant, and aliquots were analyzed by HPLC as described above. All experiments were performed in triplicate. The value of Km was calculated with the method of Lineweaver–Burk plot.

[4] = substrate: O=C(CCc1ccc(O)cc1)c1c(O)cc(O)cc1O; assay: Kinetic parameters of AbCGT (wild type); conditions: other: acceptor varied, UDP-Glc as donor, pH 7.4, 30 °C
Description: as §4

[5] = substrate: O=C1C[C@@](O)(c2ccc(O)cc2)Oc2cc(O)cc(O)c21; assay: Kinetic parameters of AbCGT (wild type); conditions: other: acceptor varied, UDP-Glc as donor, pH 7.4, 30 °C
Description: as §4

[6] = aglycon acceptor with UDP-Glc, pH 7.4, 30 °C, up to 12 h, Reaction-1 to -3
[7] = V183D, pH 7.4, 30 °C, 12 h, Reaction-1 to -3
[8] = V183E, pH 7.4, 30 °C, 12 h, Reaction-1 to -3

T1 sequence (A0A7G9P699 entry or part of it): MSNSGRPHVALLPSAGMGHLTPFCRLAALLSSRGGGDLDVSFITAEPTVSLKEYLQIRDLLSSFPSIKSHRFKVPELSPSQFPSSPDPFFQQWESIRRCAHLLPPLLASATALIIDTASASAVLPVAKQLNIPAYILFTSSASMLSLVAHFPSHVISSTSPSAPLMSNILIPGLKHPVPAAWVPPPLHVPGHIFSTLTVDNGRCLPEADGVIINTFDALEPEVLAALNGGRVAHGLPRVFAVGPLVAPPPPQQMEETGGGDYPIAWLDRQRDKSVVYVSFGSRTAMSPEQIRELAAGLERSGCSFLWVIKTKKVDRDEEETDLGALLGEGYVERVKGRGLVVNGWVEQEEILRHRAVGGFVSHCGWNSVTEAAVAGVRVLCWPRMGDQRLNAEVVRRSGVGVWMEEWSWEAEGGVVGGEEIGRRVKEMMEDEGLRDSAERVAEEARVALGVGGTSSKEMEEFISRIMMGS

With `O=C1CC(O)(c2ccc(O)cc2)Oc2cc(O)cc(O)c21` (centres unmarked) [Compound 23, 2-hydroxynaringenin] the “conversion rates, O,N,S-glycosylation” value (AbCGT [1]; [6]) was 16.7% and 14.4% and 17.2%, the “conversion rates, di-C-glycosylation” value (AbCGT [1]; [6]) was 0% and the “conversion rates, mono-C-glycosylation” value (AbCGT [1]; [6]) was 83.3% and 85.6% and 82.8%. The “WT/yield of C-glycoside(%)” value (AbCGT [1]; reaction-1) was 82%, the “WT/yield of O-glycoside(%)” value (AbCGT [1]; reaction-1) was 18.7% and the “WT/yield of C-glycoside(%)” value (AbCGT [1]; reaction-2) was 84.9%. For the same molecule, the “WT/yield of O-glycoside(%)” value (AbCGT [1]; reaction-2) was 16.2%, the “WT/yield of C-glycoside(%)” value (AbCGT [1]; reaction-3) was 83.2% and the “WT/yield of O-glycoside(%)” value (AbCGT [1]; reaction-3) was 17.8%. For the same molecule, the “conversion rates of 2-hydroxynaringenin, C-glycosylation” value (AbCGT V183L) was 83% and 80% and 76.5%, the “conversion rates of 2-hydroxynaringenin, O-glycosylation” value (“conversion rates … O-glycosylation” for short) (AbCGT V183L) was 17% and 20% and 23.5% and the “conversion rates of 2-hydroxynaringenin, C-glycosylation” value (AbCGT V183M) was 80.2% and 82.7% and 79.5%. For the same molecule, the “conversion rates … O-glycosylation” value (AbCGT V183M) was 19.8% and 17.3% and 20.5%, the “conversion rates of 2-hydroxynaringenin, C-glycosylation” value (AbCGT V183C) was 85.3% and 83.5% and the “conversion rates … O-glycosylation” value (AbCGT V183C) was 14.7% and 16.5%. The “conversion rates of 2-hydroxynaringenin, C-glycosylation” value (AbCGT V183Q) was 88.9% and 88.2%, the “conversion rates … O-glycosylation” value (AbCGT V183Q) was 11.1% and 11.8% and the “conversion rates of 2-hydroxynaringenin, C-glycosylation” value (AbCGT V183N) was 95.8% and 95.1% and 94.3%. The “conversion rates … O-glycosylation” value (AbCGT V183N) was 4.2% and 4.9% and 5.7%, the “conversion rates of 2-hydroxynaringenin, C-glycosylation” value (AbCGT V183D; [7]) was 99.7% and 99.5% and the “conversion rates … O-glycosylation” value (AbCGT V183D; [7]) was 0.3% and 0.5%. For the same molecule, the “V183D/yield of C-glycoside(%)” value (AbCGT V183D; reaction-1) was 99.3%, the “V183D/yield of O-glycoside(%)” value (AbCGT V183D; reaction-1) was 0.7% and the “V183D/yield of C-glycoside(%)” value (AbCGT V183D; reaction-2) was 99.5%. For the same molecule, the “V183D/yield of O-glycoside(%)” value (AbCGT V183D; reaction-2) was 0.5%, the “V183D/yield of C-glycoside(%)” value (AbCGT V183D; reaction-3) was 99.2% and the “V183D/yield of O-glycoside(%)” value (AbCGT V183D; reaction-3) was 0.8%. The “conversion rates of 2-hydroxynaringenin, C-glycosylation” value (AbCGT V183E; [8]) was 99.8% and 99.6%, the “conversion rates … O-glycosylation” value (AbCGT V183E; [8]) was 0.2% and 0.4% and the “V183E/yield of O-glycoside(%)” value (AbCGT V183E; reaction-1) was 0% and 0.5%. The “V183E/yield of O-glycoside(%)” value (AbCGT V183E; reaction-2) was 0% and 0.3%, the “V183E/yield of O-glycoside(%)” value (AbCGT V183E; reaction-3) was 0% and 0.8% and the “conversion rates of 2-hydroxynaringenin, C-glycosylation” value (AbCGT V183R) was 64.9% and 75.1% and 70.5%. For the same molecule, the “conversion rates … O-glycosylation” value (AbCGT V183R) was 3.4% and 2.7% and 2.9%, the “conversion rates of 2-hydroxynaringenin, C-glycosylation” value (AbCGT [2]) was 85.9% and 83.4% and 85% and the “conversion rates … O-glycosylation” value (AbCGT [2]) was 14.1% and 16.6% and 15%.

B1: AbCGT (Aloe vera) (protein)
chain: T2 sequence (A0A7G9P699 1-470 V183D) with D183V
Work on B1 yielded a Km [3] of 176.2 ± 11.7 µM, a kcat [3] of 144 ± 9.1 min⁻¹ and a Km [4] of 146.0 ± 10.2 µM. It also gave a kcat [4] of 120 ± 8.3 min⁻¹ and a Km [5] of 414.5 ± 23.7 µM.
